Reference: patent US11420958B2, “Aryl and heteroaryl substituted indole compounds” (BRISTOL-MYERS SQUIBB COMPANY, priority 2017, dated 2022)

Key:
Type in all cases: cell-based
human TLR8 = human TLR8 (Homo sapiens (Human), UniProt Q9NR97); assay: TLR8 inhibition reporter assay (HEK-Blue, SEAP); settings: HEK-Blue cells overexpressing human TLR8, R848 15.9 μM stimulation
Procedure, shortened: (§1)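 HEK-Blue cells expressing human TLR7, TLR8 or TLR9 with NF-κB/AP-1-driven SEAP reporter; compounds 0.05 nM–50 μM, 30 min pre-treatment at room temperature. Stimulated with gardiquimod 7.5 μM (TLR7), R848 15.9 μM (TLR8) or ODN2006 5 nM (TLR9), 22 h at 37 °C; % inhibition of SEAP signal relative to agonist+DMSO and known-inhibitor wells.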

human TLR9 = human TLR9 (Homo sapiens (Human), UniProt Q9NR96); assay: TLR9 inhibition reporter assay (HEK-Blue, SEAP); settings: HEK-Blue cells overexpressing human TLR9, ODN2006 5 nM stimulation
Procedure, shortened: as §1

human TLR7 = human TLR7 (Homo sapiens (Human), UniProt Q9NYK1); assay: TLR7 inhibition reporter assay (HEK-Blue, SEAP); settings: HEK-Blue cells overexpressing human TLR7, gardiquimod 7.5 μM stimulation
Procedure, shortened: as §1

Sequence of human TLR9 (Q9NR96 26-1032): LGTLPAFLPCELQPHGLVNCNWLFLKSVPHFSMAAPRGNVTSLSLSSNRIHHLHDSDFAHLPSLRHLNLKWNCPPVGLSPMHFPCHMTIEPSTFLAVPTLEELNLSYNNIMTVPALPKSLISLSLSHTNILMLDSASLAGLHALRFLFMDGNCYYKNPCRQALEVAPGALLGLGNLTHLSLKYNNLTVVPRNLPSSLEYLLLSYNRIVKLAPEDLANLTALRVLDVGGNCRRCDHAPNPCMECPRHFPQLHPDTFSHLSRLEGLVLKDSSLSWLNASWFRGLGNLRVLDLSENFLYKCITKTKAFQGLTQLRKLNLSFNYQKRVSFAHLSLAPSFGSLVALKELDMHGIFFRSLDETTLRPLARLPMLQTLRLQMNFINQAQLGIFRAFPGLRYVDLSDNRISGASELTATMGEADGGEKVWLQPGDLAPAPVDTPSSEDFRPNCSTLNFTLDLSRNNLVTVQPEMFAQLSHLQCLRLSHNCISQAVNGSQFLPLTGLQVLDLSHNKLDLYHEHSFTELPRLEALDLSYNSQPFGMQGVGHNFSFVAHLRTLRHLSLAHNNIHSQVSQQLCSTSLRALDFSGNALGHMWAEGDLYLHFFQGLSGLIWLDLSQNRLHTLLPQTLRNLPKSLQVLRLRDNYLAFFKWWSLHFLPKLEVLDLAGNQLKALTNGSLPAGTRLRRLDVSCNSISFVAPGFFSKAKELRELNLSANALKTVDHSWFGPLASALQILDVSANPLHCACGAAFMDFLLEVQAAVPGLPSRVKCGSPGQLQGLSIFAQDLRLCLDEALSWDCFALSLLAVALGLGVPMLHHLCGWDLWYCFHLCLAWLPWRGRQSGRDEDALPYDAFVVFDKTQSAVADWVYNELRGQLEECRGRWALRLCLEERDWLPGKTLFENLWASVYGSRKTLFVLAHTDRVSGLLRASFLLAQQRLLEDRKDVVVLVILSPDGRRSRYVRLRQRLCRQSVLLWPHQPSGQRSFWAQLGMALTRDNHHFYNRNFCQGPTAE
Sequence of human TLR7 (Q9NYK1 27-1049): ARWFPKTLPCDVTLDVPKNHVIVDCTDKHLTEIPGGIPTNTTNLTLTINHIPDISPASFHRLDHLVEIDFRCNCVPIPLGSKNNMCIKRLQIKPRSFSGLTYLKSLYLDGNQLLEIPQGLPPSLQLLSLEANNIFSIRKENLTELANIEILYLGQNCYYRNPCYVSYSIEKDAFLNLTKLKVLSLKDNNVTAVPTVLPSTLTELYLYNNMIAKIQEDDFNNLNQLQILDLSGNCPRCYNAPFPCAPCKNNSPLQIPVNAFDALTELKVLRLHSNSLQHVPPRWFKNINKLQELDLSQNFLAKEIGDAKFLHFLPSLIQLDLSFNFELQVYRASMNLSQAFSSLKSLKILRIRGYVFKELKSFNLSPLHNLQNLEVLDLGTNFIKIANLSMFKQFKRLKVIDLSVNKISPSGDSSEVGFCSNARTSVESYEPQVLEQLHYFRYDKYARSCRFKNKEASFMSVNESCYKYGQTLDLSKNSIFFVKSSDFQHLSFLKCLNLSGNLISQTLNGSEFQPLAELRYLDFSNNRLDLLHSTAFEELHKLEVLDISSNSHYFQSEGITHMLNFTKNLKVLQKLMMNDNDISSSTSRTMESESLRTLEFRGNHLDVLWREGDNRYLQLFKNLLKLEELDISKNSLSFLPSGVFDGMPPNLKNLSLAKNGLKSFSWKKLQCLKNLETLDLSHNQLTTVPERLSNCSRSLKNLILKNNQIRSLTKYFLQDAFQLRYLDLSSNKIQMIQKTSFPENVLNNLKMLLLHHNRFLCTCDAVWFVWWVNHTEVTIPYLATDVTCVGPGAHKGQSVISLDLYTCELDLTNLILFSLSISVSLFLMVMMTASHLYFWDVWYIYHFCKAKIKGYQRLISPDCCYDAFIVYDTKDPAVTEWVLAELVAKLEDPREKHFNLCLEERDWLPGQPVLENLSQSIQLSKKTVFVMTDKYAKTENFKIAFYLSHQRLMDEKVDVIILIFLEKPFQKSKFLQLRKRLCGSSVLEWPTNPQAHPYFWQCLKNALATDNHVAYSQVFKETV
Sequence of human TLR8 (Q9NR97 27-1041): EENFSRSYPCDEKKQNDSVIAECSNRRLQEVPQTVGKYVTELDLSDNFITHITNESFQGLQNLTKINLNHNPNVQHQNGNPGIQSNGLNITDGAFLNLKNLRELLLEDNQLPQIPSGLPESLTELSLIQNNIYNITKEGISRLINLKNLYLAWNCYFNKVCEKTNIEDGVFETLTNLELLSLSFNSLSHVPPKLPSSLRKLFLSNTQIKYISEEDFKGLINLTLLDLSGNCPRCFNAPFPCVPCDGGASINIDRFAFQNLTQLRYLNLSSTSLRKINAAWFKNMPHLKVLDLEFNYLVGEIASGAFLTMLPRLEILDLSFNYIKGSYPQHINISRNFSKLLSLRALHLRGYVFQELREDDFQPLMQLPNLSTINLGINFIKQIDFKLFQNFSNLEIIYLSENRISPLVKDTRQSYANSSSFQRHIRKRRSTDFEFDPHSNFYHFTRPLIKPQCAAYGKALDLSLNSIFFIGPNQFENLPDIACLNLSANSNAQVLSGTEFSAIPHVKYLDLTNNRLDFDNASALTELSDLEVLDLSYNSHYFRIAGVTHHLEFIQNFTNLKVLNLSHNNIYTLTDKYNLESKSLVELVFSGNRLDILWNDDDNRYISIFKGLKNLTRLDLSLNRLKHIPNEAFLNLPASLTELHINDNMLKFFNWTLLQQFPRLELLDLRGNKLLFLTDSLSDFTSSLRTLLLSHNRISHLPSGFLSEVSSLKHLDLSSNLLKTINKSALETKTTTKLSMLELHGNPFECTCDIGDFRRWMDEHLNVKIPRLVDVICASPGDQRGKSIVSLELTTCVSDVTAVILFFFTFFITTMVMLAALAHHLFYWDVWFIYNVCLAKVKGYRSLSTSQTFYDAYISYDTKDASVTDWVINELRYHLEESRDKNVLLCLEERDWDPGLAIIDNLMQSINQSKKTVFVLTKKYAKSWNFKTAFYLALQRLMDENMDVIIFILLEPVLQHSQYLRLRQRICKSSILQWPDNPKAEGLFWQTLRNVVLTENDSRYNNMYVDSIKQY

SMILES | IC50 (human TLR8) [nM] | IC50 (human TLR9) [nM] | IC50 (human TLR7) [nM]
CC(C)c1c(-c2ccnc3[nH]ncc23)[nH]c2ccc(-c3nnc(CN4CC[C@@H](N(C)C)C4)o3)cc12 [Example 157, (R)-1-((5-(3-isopropyl-2-(1H-pyrazolo[3,4-b]pyridin-4-yl)-1H-indol-5-yl)-1,3,4-oxadiazol-2-yl)methyl)-N,N-dimethylpyrrolidin-3-amine] | 18 | 4480 | 314
CC(C)c1c(-c2ccnc3[nH]ncc23)[nH]c2ccc(-c3nnc(CN4CCC[C@H]4C(N)=O)o3)cc12 [Example 158, (S)-1-((5-(3-isopropyl-2-(1H-pyrazolo[3,4-b]pyridin-4-yl)-1H-indol-5-yl)-1,3,4-oxadiazol-2-yl)methyl)pyrrolidine-2-carboxamide] | 174 | > 50000 | 1380
CC(C)c1c(-c2ccnc(N)c2)[nH]c2ccc(-c3nc(C(=O)NC4CCN(C(C)C)CC4)co3)cc12 [Example 160, 2-(2-(2-aminopyridin-4-yl)-3-isopropyl-1H-indol-5-yl)-N-(1-isopropylpiperidin-4-yl)oxazole-4-carboxamide] | 23 | 3930 | 120
COc1ccc(-c2[nH]c3ccc(-c4ccc5c(c4)NCCC5)cc3c2C(C)C)cc1OC [Example 161, 7-(2-(3,4-dimethoxyphenyl)-3-isopropyl-1H-indol-5-yl)-1,2,3,4-tetrahydroquinoline] | 1980 | 5000 | 2930
Cc1cc(-c2[nH]c3ccc(-c4nnc(C5CCN(Cc6ccccc6)CC5)[nH]4)cc3c2C(C)C)ccn1 [Example 163, 5-(5-(1-benzylpiperidin-4-yl)-4H-1,2,4-triazol-3-yl)-3-isopropyl-2-(2-methylpyridin-4-yl)-1H-indole] | 8.6 | 690 | 33
Cc1cc(-c2[nH]c3ccc(-c4nnc(C5CCCNC5)[nH]4)cc3c2C(C)C)ccn1 (stereo not drawn) [Example 164, 3-isopropyl-2-(2-methylpyridin-4-yl)-5-(5-(piperidin-3-yl)-4H-1,2,4-triazol-3-yl)-1H-indole] | 27 | 10400 | 45
COc1ccc(-c2[nH]c3ccc(-c4ncc[nH]4)cc3c2C(C)C)cc1OC [Example 165, 2-(3,4-dimethoxyphenyl)-5-(1H-imidazol-2-yl)-3-isopropyl-1H-indole] | 7.3 | 6690 | 93
CC(C)c1c(-c2ccnc(N)c2)[nH]c2ccc(-c3nnc(C(=O)N(C)C)o3)cc12 [Example 166, 5-(2-(2-aminopyridin-4-yl)-3-isopropyl-H-indol-5-yl)-N,N-dimethyl-1,3,4-oxadiazole-2-carboxamide] | 47 | 29500 | 284
Cc1cc(-c2[nH]c3ccc(-c4nccs4)cc3c2C(C)C)ccn1 [Example 171, 2-(3-isopropyl-2-(2-methylpyridin-4-yl)-1H-indol-5-yl)thiazole] | 19 | > 50000 | 159
Cc1cc(-c2[nH]c3ccc(-c4nnc(N)o4)cc3c2C(C)C)ccn1 [Example 174, 5-(3-isopropyl-2-(2-methylpyridin-4-yl)-1H-indol-5-yl)-1,3,4-oxadiazol-2-amine] | 14 | 44300 | 53
CNC(=O)CN1CCCC(c2nnc(-c3ccc4[nH]c(-c5ccnc(C)c5)c(C(C)C)c4c3)[nH]2)C1 (stereo not drawn) [Example 175, 2-(3-(5-(3-isopropyl-2-(2-methylpyridin-4-yl)-1H-indol-5-yl)-4H-1,2,4-triazol-3-yl)piperidin-1-yl)-N-methylacetamide] | 7.4 | > 50000 | 560
Cc1cc(-c2[nH]c3ccc(-c4nnc(C5CCCN(C(=O)CN(C)C)C5)[nH]4)cc3c2C(C)C)ccn1 (stereo not drawn) [Example 176, 2-(dimethylamino)-1-(3-(5-(3-isopropyl-2-(2-methylpyridin-4-yl)-1H-indol-5-yl)-4H-1,2,4-triazol-3-yl)piperidin-1-yl)ethan-1-one] | 6.3 | 1920 | 51
CC(C)c1c(-c2ccnc3[nH]ncc23)[nH]c2ccc(-c3ccnc4[nH]ncc34)cc12 [Example 177, 4,4′-(3-isopropyl-1H-indole-2,5-diyl)bis(1H-pyrazolo[3,4-b]pyridine)] | 3.7 | 24100 | 45
Cc1cc(-c2[nH]c3ccc(-c4nnc(C5CCCNC5)[nH]4)cc3c2C(C)C)ccn1 (stereo not drawn) [Example 178, 3-isopropyl-2-(2-methylpyridin-4-yl)-5-(5-(piperidin-3-yl)-4H-1,2,4-triazol-3-yl)-1H-indole] | 12 | 3990 | 220
Cc1cc(-c2[nH]c3ccc(-c4nnc(C5CCCC(N)C5)o4)cc3c2C(C)C)ccn1 (stereo not drawn) [Example 179, 3-(5-(3-isopropyl-2-(2-methylpyridin-4-yl)-1H-indol-5-yl)-1,3,4-oxadiazol-2-yl)cyclohexan-1-amine] | 6 | 2790 | 980
CC(C)c1c(-c2ccnc3n[nH]cc23)[nH]c2ccc(-c3nccs3)cc12 [Example 181, 2-(3-isopropyl-2-(2H-pyrazolo[3,4-b]pyridin-4-yl)-1H-indol-5-yl)thiazole] | 36 | 35100 | 680
CC(C)c1c(-c2ccnc3[nH]ncc23)[nH]c2ccc(-c3nnc(CC4CCCNC4)o3)cc12 (stereo not drawn) [Example 182, 2-(3-isopropyl-2-(1H-pyrazolo[3,4-b]pyridin-4-yl)-1H-indol-5-yl)-5-(piperidin-3-ylmethyl)-1,3,4-oxadiazole] | 44 | 595 | 332
CC(C)c1c(-c2ccnc3n[nH]cc23)[nH]c2ccc(-c3nc(C(=O)NC4CCN(C(C)C)CC4)co3)cc12 [Example 183, 2-(3-isopropyl-2-(2H-pyrazolo[3,4-b]pyridin-4-yl)-1H-indol-5-yl)-N-(1-isopropylpiperidin-4-yl)oxazole-4-carboxamide] | 5.8 | 427 | 137
Cc1cc(-c2[nH]c3ccc(-c4nnc(C5CCCNC5)[nH]4)cc3c2C(C)C)ccn1 (stereo not drawn) [Example 184, 3-isopropyl-2-(2-methylpyridin-4-yl)-5-(5-(piperidin-3-yl)-4H-1,2,4-triazol-3-yl)-1H-indole] | 77 | 7480 | 71

These reach a lower IC50 (human TLR8). Values come first.

IC50 (human TLR8) [nM] | IC50 (human TLR9) [nM] | IC50 (human TLR7) [nM] | SMILES
3.2 | 653 | 66 | CC(C)c1c(-c2ccnc3[nH]ncc23)[nH]c2ccc(-c3nnc(C4CCCN(C)C4)o3)cc12 (stereo not drawn) [Example 167, 2-(3-isopropyl-2-(1H-pyrazolo[3,4-b]pyridin-4-yl)-1H-indol-5-yl)-5-(1-methylpiperidin-3-yl)-1,3,4-oxadiazole]
2.9 | 1840 | 46 | Cc1cc(-c2[nH]c3ccc(-c4nc(C(=O)NC5CCN(C(C)C)CC5)co4)cc3c2C(C)C)ccn1 [Example 173, 2-(3-isopropyl-2-(2-methylpyridin-4-yl)-1H-indol-5-yl)-N-(1-isopropylpiperidin-4-yl)oxazole-4-carboxamide]
2.3 | 2150 | 49 | Cc1cc(-c2[nH]c3ccc(-c4nc(C(=O)N5CC6CNCC6C5)co4)cc3c2C(C)C)ccn1 (stereo not drawn) [Example 172, (hexahydropyrrolo[3,4-c]pyrrol-2(1H)-yl)(2-(3-isopropyl-2-(2-methylpyridin-4-yl)-1H-indol-5-yl)oxazol-4-yl)methanone]
2.2 | 872 | 31 | Cc1cc(-c2[nH]c3ccc(-c4nnc(C5CCCN(CC(=O)N(C)C)C5)[nH]4)cc3c2C(C)C)ccn1 (stereo not drawn) [Example 180, 2-(3-(5-(3-isopropyl-2-(2-methylpyridin-4-yl)-1H-indol-5-yl)-4H-1,2,4-triazol-3-yl)piperidin-1-yl)-N,N-dimethylacetamide]
1.9 | 1080 | 81 | CC(C)c1c(-c2ccnc3[nH]ncc23)[nH]c2ccc(-c3nnc(C4CCCN(C)C4)o3)cc12 (stereo not drawn) [Example 168, 2-(3-isopropyl-2-(1H-pyrazolo[3,4-b]pyridin-4-yl)-1H-indol-5-yl)-5-(1-methylpiperidin-3-yl)-1,3,4-oxadiazole]
1.8 | 1230 | 24 | Cc1cc(-c2[nH]c3ccc(-c4nnc(C5CCCN(C)C5)o4)cc3c2C(C)C)ccn1 (stereo not drawn) [Example 159, 2-(3-isopropyl-2-(2-methylpyridin-4-yl)-1H-indol-5-yl)-5-(1-methylpiperidin-3-yl)-1,3,4-oxadiazole]
1.8 | 564 | 27 | Cc1cc(-c2[nH]c3ccc(-c4nnc(C5CCCN(C)C5)o4)cc3c2C(C)C)ccn1 (stereo not drawn) [Example 169, 2-(3-isopropyl-2-(2-methylpyridin-4-yl)-1H-indol-5-yl)-5-(1-methylpiperidin-3-yl)-1,3,4-oxadiazole]
1.7 | 1380 | 52 | CC(C)c1c(-c2ccnc3[nH]ncc23)[nH]c2ccc(-c3nnc(C4CCCN(C)C4)o3)cc12 (stereo not drawn) [Example 162, 2-(3-isopropyl-2-(1H-pyrazolo[3,4-b]pyridin-4-yl)-1H-indol-5-yl)-5-(1-methylpiperidin-3-yl)-1,3,4-oxadiazole]
0.6 | 660 | 11 | Cc1cc(-c2[nH]c3ccc(-c4nnc(C5CCCN(C)C5)o4)cc3c2C(C)C)ccn1 (stereo not drawn) [Example 170, 2-(3-isopropyl-2-(2-methylpyridin-4-yl)-1H-indol-5-yl)-5-(1-methylpiperidin-3-yl)-1,3,4-oxadiazole]
